From patent US20170334899A1, “AMINO-SUBSTITUTED ISOTHIAZOLES” (Bayer Pharma Aktiengesellschaft, priority 2014, published 2017)

Legend:
[1] = tested on: human cervical tumor cell line HeLa (ATCC CCL-2); experiment: SAC-Formation - Paclitaxel-Induced Assay; format: cell-based; details: Homo sapiens, HeLa, 24 h, HeLa cells, paclitaxel 0.05 μM, test range 0.005 μM-20 μM, read-out: IC50 [mol/l] SAC-Formation - Paclitaxel-Induced Assay
Method in brief: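 HeLa cells incubated overnight at 37° C, then given paclitaxel (0.05 μM final) plus test compound (0.005–20 μM, 0.5% DMSO) together for 24 h at 37° C. Fixed cells stained for phospho-histone H3 Ser10 (mitotic cells) and Hoechst 33342 (cell count); imaging-derived mitotic index fitted by four-parameter Hill equation.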

[2] = tested on: human cervical tumor cell line HeLa (ATCC CCL-2); experiment: SAC-Formation - Nocodazole-Induced Assay; format: cell-based; details: Homo sapiens, HeLa, 24 h, HeLa cells, nocodazole 0.1 μg/ml together with test compound, decrease of mitotic cells (phospho-histone H3 Ser10)
Method in brief: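 HeLa cells, plated overnight, were treated 24 h at 37 °C with nocodazole (0.1 μg/ml final) plus test compound (0.005–20 μM, 0.5% DMSO) added at the same time. After fixation, anti-phospho-histone H3 Ser10 and Hoechst staining gave the mitotic cell fraction by imaging. Values came from four-parameter Hill fits.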

| IC50 [1] | IC50 [2] | SMILES |
| --- | --- | --- |
| 2900 nM | 2700 nM | Cc1nsc(Nc2cnc(C(F)(F)F)cn2)c1C(=O)Nc1ccc(C(=O)NCCN2CCCC(F)C2)cc1 (stereo not shown) [Example 213, N-(4-{[2-(3-fluoropiperidin-1-yl)ethyl]carbamoyl}phenyl)-3-methyl-5-{[5-(trifluoromethyl)pyrazin-2-yl]amino}-1,2-thiazole-4-carboxamide] |
| 1600 nM | 320 nM | Cc1nsc(Nc2cncc(C(F)(F)F)n2)c1C(=O)Nc1ccc(C(=O)NCCN2CCCC(F)(F)C2)cc1 [Example 214, N-(4-{[2-(3,3-difluoropiperidin-1-yl)ethyl]carbamoyl}phenyl)-3-methyl-5-{[6-(trifluoromethyl)pyrazin-2-yl]amino}-1,2-thiazole-4-carboxamide] |
| 72 nM | 210 nM | Cc1nsc(Nc2cnc(C(F)(F)F)cn2)c1C(=O)Nc1ccc(OCCNC(=O)OC(C)(C)C)c(F)c1 [Example 215, tert-butyl [2-(2-fluoro-4-{[(3-methyl-5-{[5-(trifluoromethyl)pyrazin-2-yl]amino}-1,2-thiazol-4-yl)carbonyl]amino}phenoxy)ethyl]carbamate] |
| 140 nM | 140 nM | Cc1nsc(Nc2cncc(C(F)(F)F)n2)c1C(=O)Nc1ccc(OCCNC(=O)OC(C)(C)C)c(F)c1 [Example 216, tert-butyl [2-(2-fluoro-4-{[(3-methyl-5-{[6-(trifluoromethyl)pyrazin-2-yl]amino}-1,2-thiazol-4-yl)carbonyl]amino}phenoxy)ethyl]carbamate] |
| 410 nM | 860 nM | Cc1nsc(Nc2cnc(C(F)(F)F)cn2)c1C(=O)Nc1ccc(OC2CCN(C(=O)OC(C)(C)C)CC2)c(F)c1 [Example 217, tert-butyl 4-(2-fluoro-4-{[(3-methyl-5-{[5-(trifluoromethyl)pyrazin-2-yl]amino}-1,2-thiazol-4-yl)carbonyl]amino}phenoxy)piperidine-1-carboxylate] |
| 3900 nM | 380 nM | Cc1nsc(Nc2cncc(C(F)(F)F)n2)c1C(=O)Nc1ccc(OC2CCN(C(C)C)CC2)nc1 [Example 218, N-{6-[(1-isopropylpiperidin-4-yl)oxy]pyridin-3-yl}-3-methyl-5-{[6-(trifluoromethyl)pyrazin-2-yl]amino}-1,2-thiazole-4-carboxamide] |
| 660 nM | 910 nM | Cc1nsc(Nc2cncc(C(F)(F)F)n2)c1C(=O)Nc1ccc(OC2CCN(C)CC2)nc1 [Example 219, 3-methyl-N-{6-[(1-methylpiperidin-4-yl)oxy]pyridin-3-yl}-5-{[6-(trifluoromethyl)pyrazin-2-yl]amino}-1,2-thiazole-4-carboxamide] |
| 970 nM | 1100 nM | Cc1nsc(Nc2cnc(C(F)(F)F)cn2)c1C(=O)Nc1ccc(OC2CCN(C)CC2)nc1 [Example 220, 3-methyl-N-{6-[(1-methylpiperidin-4-yl)oxy]pyridin-3-yl}-5-{[5-(trifluoromethyl)pyrazin-2-yl]amino}-1,2-thiazole-4-carboxamide] |
| 500 nM | 92 nM | Cc1nsc(Nc2cnc(C(F)(F)F)cn2)c1C(=O)Nc1ccc(OCCN)c(F)c1 [Example 221, 3-N-[4-(2-aminoethoxy)-3-fluorophenyl]-3-methyl-5-{[5-(trifluoromethyl)pyrazin-2-yl]amino}-1,2-thiazole-4-carboxamide] |
| 820 nM | 770 nM | Cc1nsc(Nc2cncc(C(F)(F)F)n2)c1C(=O)Nc1ccc(C(=O)NC2CCN(C(=O)OC(C)(C)C)CC2)cc1 [Example 222, tert-butyl 4-[(4-{[(3-methyl-5-{[6-(trifluoromethyl)pyrazin-2-yl]amino}-1,2-thiazol-4-yl)carbonyl]amino}benzoyl)amino] piperidine-1-carboxylate] |
| 110 nM | 180 nM | Cc1nsc(Nc2cncc(C(F)(F)F)n2)c1C(=O)Nc1ccc(OC2CCN(CCF)CC2)c(F)c1 [Example 223, N-(3-fluoro-4-{[1-(2-fluoroethyl)piperidin-4-yl]oxy}phenyl)-3-methyl-5-{[6-(trifluoromethyl)pyrazin-2-yl]amino}-1,2-thiazole-4-carboxamide] |
